Measurements as given in US6410567B1, “Pesticide containing a photosensitizer and an attractant” (priority 1996, dated 2002).

Experiments:
Format in all cases: in vivo
Ceratitis capitata = assay: Comparative studies on the photoinsecticidal activity of different sensitizing compounds (percent survival after irradiation); settings: for Percent survival, 0 h after 1 h irradiation / Percent survival, 1 h after 1 h irradiation / Percent survival, 24 h after 1 h irradiation: 6 μmoles/ml photosensitizer for 24 h, 1220 μE s^−1 m^−2 for 1 h; for Percent survival, 0 h after 1 h irradiation: 0 h after irradiation; for Percent survival, 1 h after 1 h irradiation: 1 h after irradiation; for Percent survival, 24 h after 1 h irradiation: 24 h after irradiation; for Percent survival, pre-irradiation: Ceratitis capitata fed 24 h with sucrose solution containing 6 μmoles/ml photosensitizer, before irradiation
Description: 31. Comparative Studies on the Photosecticidal Activity of Different Sensitizing Compounds
Target: Ceratitis capitata
Light source: Sunlight-simulating halogen lamp
Light intensity (fluence rate): 1220 μE s^−1 m^−2
Groups of at least 20 flies were fed for 24 h with 3 ml of an aqueous solution containing sucrose (attractive) and 6 μmoles/ml of the photosensitizer. […]

flies [1] = assay: Mortality investigations: control flies given only HP without irradiation; settings: flies fed HP in the food, no irradiation
Description: An appropriate number of flies (25 for each experiment) was removed from a population and starved for 48 hours. Then, depending on the individual experimental conditions, the flies were provided with food, the control animals being fed with sugar and water while the test group received hematoporphyrin (HP; shown below) which had been added to the food. The animals were then used for the individual experiments; for example, HP was extracted or the flies were irradiated, etc.
3. Mortality Investigations
Control flies and flies fed with HP were irradiated with light sources (HQIT 400W/D OSRAM) whose emitted light is similar to sunlight. The number of survivors was plotted against the irradiation time. The HP concentration, the flux rate and the exposure time (or the total light dose) were investigated as parameters in respect of their effect on the mortality.

flies [2] = assay: Effect of the attractant buminal on the intake of HP (extraction, spectrofluorimetric analysis); settings: HP 8 μmol/ml offered for 6 h, in combination with buminal vs buminal-free food
Description: 19. Effect of the Attractant Buminal on the Intake and Action of HP
Groups of 10 flies each were fed for two days with an aqueous solution comprising sucrose and were then fed with compositions which contained the following ingredients:
1. HP (8 μmol/ml)+buminal (1 ml)
3. HP (8 μmol/ml)+1 ml sucrose (1.4 mg/ml)
4. HP (8 μmol/ml)+buminal (0.5 ml)+sucrose (0.5 ml)
The animals were able to take in the compositions indicated above for 6 hours. Thereafter the flies were subjected to an extraction in order to extract the HP taken in, which was quantified by a spectrofluorimetric analysis. From these experiments it is clearly evident that buminal is capable of sharply increasing the intake of HP by the flies, the flies taking in about four times the quantity of photosensitizer when the latter is offered in combination with buminal, in comparison to the buminal-free food. The addition of buminal therefore strengthens the action of HP.

Molecule | Percent survival, 0 h after 1 h irradiation (Ceratitis capitata) | Percent survival, 1 h after 1 h irradiation (Ceratitis capitata) | Percent survival, 24 h after 1 h irradiation (Ceratitis capitata) | Percent survival, pre-irradiation (Ceratitis capitata) | Mortality or toxic effect without irradiation (flies [1]) | Quantity of photosensitizer taken in with buminal in comparison to the buminal-free food (flies [2])
CC1=C(CCC(=O)O)c2cc3[nH]c(cc4nc(cc5[nH]c(cc1n2)c(C)c5C(C)O)C(C)=C4C(C)O)c(C)c3CCC(=O)O (stereo not drawn) [I, hematoporphyrin] | 60% | 25% | 5% | 100% | In none of the experiments was mortality or a toxic effect observed | about four
C[n+]1ccc(-c2c3nc(c(-c4cc[n+](C)cc4)c4ccc([nH]4)c(-c4cc[n+](C)cc4)c4nc(c(-c5ccccc5)c5ccc2[nH]5)C=C4)C=C3)cc1 [II, meso-tri(4N-methyl-pyridyl)-monophenyl-porphine] | 10% | 0% | 0% | 100% | – | –
O=C1OC2(c3cc(I)c(O)c(I)c3Oc3c2cc(I)c(O)c3I)c2c(Cl)c(Cl)c(Cl)c(Cl)c21 [IV, Rose bengal (tetrachloro, tetraiodo-fluorescein)] | 85% | 58% | 30% | 100% | – | –
Nc1c(S(=O)(=O)[O-])ccc2c1C(=O)c1ccccc1C2=O.[Na+] [V, 1-amino-anthraquinone-2-sulphonate (sodium salt)] | 100% | 77% | 60% | 100% | – | –
COc1ccc(NC(N)=S)cc1 [VI, 1-(4-methoxyphenyl)-2-thiourea] | 100% | 95% | 90% | 100% | – | –
O=C([O-])c1cccc2sc3ccccc3c(=O)c12.[Na+] [VII, thioxanthene-9-one-1-carbonate (sodium salt)] | 100% | 100% | 90% | 100% | – | –
Al(III)-phtalocyanine tetrasulphonate (sodium salt) | 100% | 95% | 90% | 100% | – | –
